Our source for the EC50, IC50 and outcome values is PubChem BioAssay AID179 (DTP/NCI, 2004).

In general, pEC50 refers to the EC50 on a negative log10 scale, so that one unit is a factor of ten. Broadly, the pIC50 is the IC50 on a negative log10 scale, so that one unit is a factor of ten. Low values mean a high IC50, high ones a low IC50.

The experiment has as its system CEM cells HIV-1 protection, formazan growth assay. Nature of the experiment: NCI AIDS Antiviral Assay. The following applies: for pIC50: measured here: growth of uninfected CEM cells. The gist of the method:
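Human CEM cells, uninfected and HIV-1-infected, received five drug concentrations, and growth was read by soluble formazan assay. Compounds giving at least 50% protection were retested; reproducible 100% protection defined confirmed active.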

Structures are written as SMILES. pEC50, pIC50: −log10 of the molar value. Values joined by “and” are separate entries in the source; they are usually repeats but may differ in a detail not shown here. Identical values can stand only once. Active and inactive are the calls of the source.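 How the source made its calls: active means compounds giving half or more protection of infected cells from virus-caused growth loss, again on retest; inactive means the rest.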

For the compound `C/C(=N/NC(=S)Nc1ccccc1Cl)c1cccc(/C(C)=N\NC(=S)Nc2ccccc2Cl)n1`, the pEC50 is less than 3.70 and the pIC50 is 4.06. The corresponding values for `C1CCC(CC2CCC(NC3=NCCO3)CC2)CC1` (stereo not given) are less than 3.70 and 4.50. On to `Nn1c(Sc2nc3ccccc3c(=O)n2N)nc2ccccc2c1=O`, for which the pEC50 is less than 3.70 and the pIC50 was 5.42. The like results for `CC1=C(C)C2(C#N)C(=O)N3C(=NC(c4ccco4)NC3c3ccco3)C2(C#N)C(c2ccco2)N1` (stereo not given) were, in that order, less than 3.70 and less than 3.70. The corresponding values for `COC(OC(CO)C(O)S(=O)(=O)O)C(O)S(=O)(=O)O` (stereo not given) are less than 3.70 and 4.49. The corresponding values for `O=C(CCN(C(=O)O)S(=O)(=O)c1ccc(NC(=O)c2ccccc2)cc1)Nc1ccccc1` are less than 3.27 and less than 3.27. For the compound `CC1=C2C(c3ccccc3)(c3ccccc3)C3C=CC2(C=N3)N(C(=O)NC2CCCCC2)C1=O` (stereo not given), the pEC50 is less than 4.94 and the negative-log IC50 (pIC50) was less than 4.94. Take `COCc1cn(C2CC(F)C(CO)O2)c(=O)nc1N` (stereo not given): the pEC50 was less than 3.34 and the negative-log IC50 (pIC50) was less than 3.34. `NC1(N2SC(S)=C3CCCC=C32)CCCCC1`: the negative-log EC50 (pEC50) was 4.37 and the pIC50 is less than 3.70. The like results for `CC1CN1SSN1CC1C` (stereo not given) were, in that order, less than 3.70 and 3.74. Turning to `Cc1ccc(SCC(CF)OCn2cc(F)c(=O)[nH]c2=O)cc1` (stereo not given), the pEC50 is less than 3.70 and the negative-log IC50 (pIC50) is 3.91. The like results for `CC(C)n1nnnc1-c1ccccc1` were, in that order, less than 3.70 and less than 3.70. The like results for `C/C(=N\NC(C)(C)C)c1sc(-c2nc(C)c(/C(C)=N/NC(C)(C)C)s2)nc1C` were, in that order, less than 4.35 and less than 4.35. Consider `CCCCCCCCCCCCCCCC=C(c1cc(Cl)c(OC)c(C(=O)O)c1)c1cc(Cl)c(OC)c(C(=O)O)c1`, for which the pEC50 is less than 2.92; the pIC50 was 4.58 and 4.28. On to `CN(/N=C/c1ccccc1C(=O)O)C1=NCCCCN1`, for which the pEC50 was less than 3.70 and the pIC50 was less than 3.70.

For the compound `CC(C)=CCC[C@@H](C)C1=C(Nc2ccccc2F)C(O)=C(C)C(=O)C1=O`, the pEC50 is less than 3.70 and the pIC50 was 5.67.

With `CC(=O)Nc1cccc(N2C(=O)/C(=C\c3cccc(Oc4ccccc4)c3)SC2c2ccccc2)c1` (stereo not given), the pEC50 is less than 3.70 and the pIC50 was 4.51. `COC(=O)/C=C\C(C#N)(C#N)N=Cc1cccs1`: the pEC50 is less than 5.70 and the negative logarithm of the IC50 (pIC50) is 6.41. `C[C@]12CC[C@H](O)CC1=CC[C@@H]1C2CC[C@]2(C)NC(=O)CCC12` (stereo not given in full): the outcome was inactive. As to `CC1=CC(C/C(C)=C/COc2ccc3ccc(=O)oc3c2)OC1=O` (stereo not given), the pEC50 is less than 5.49 and the pIC50 was less than 5.49. As for `CC(=O)OCC1OC(NC(=S)Nn2c(=O)[nH]c3ccccc3c2=O)C(OC(C)=O)C(OC(C)=O)C1OC(C)=O` (stereo not given), the pEC50 was less than 3.70 and the pIC50 was less than 3.70. Regarding `O=C(Nc1cccc([N+](=O)[O-])c1)C(=O)C(C(=O)c1ccccc1F)C1OC(=O)C2C=CC=CC21` (stereo not given), the pEC50 was less than 3.55 and the pIC50 was 5.39. The corresponding values for `CN1C(=O)/C(=C2\SC(=O)N(CN3CCOCC3)C2=O)c2ccccc21` are less than 3.70 and 4.43. Take `C=C1C(OC(=O)c2ccccc2)C2[C@@H](OC(=O)CC)[C@@H](C)C[C@]2(O)C(=O)[C@@H](C)/C=C/C(C)(C)C(=O)C(O)[C@H]1OC(=O)C(C)C` (stereo not given in full): the result was inactive. As for `CC1CN1c1c(C(=O)/C=C/c2ccccc2)c(-c2ccccc2)nn(C)c1=O` (stereo not given), the pEC50 is less than 4.17 and the pIC50 is 4.90.

As to `COc1ccc(OC)c(/C=C(/C#N)c2ccccc2)c1`, the pEC50 is less than 4.99 and the pIC50 is less than 4.99.

As for `CC(=O)C(=Cc1ccc(Cl)cc1)C(C)=O`, the pEC50 is less than 3.37 and the pIC50 was 4.71. The like results for `COC(=O)C1Cc2c(OC)ccc(OC)c2C(O)C1C(=O)OC` (stereo not given) were, in that order, less than 3.70 and less than 3.70. Regarding `CCCCCC(=O)OCCOCCOCCOCCOCCOCc1ccccc1`, the outcome was inactive. Consider `N#Cc1c(N)oc(-c2cccc([N+](=O)[O-])c2)c1C#N`, for which the pEC50 is less than 3.70 and the pIC50 was 4.97.

As for `C[N+](C)(C)CC1CCCC/C1=N\O` (stereo not given), the pEC50 is less than 3.10 and the pIC50 is less than 3.10. Take `COc1cc(C2=C(c3cc(OC)c4ccccc4c3OC)C(=O)c3ccccc3C2=O)c(OC)c2ccccc12`: the pEC50 is less than 4.00 and the negative-log IC50 (pIC50) was less than 4.00.

In the case of `COc1ccc(C2=NOC3COC4C=CC=CC4OCC23)cc1` (stereo not given), the pEC50 is less than 4.08 and the pIC50 is less than 4.08. As for `C=C(C)[C@@H]1CC[C@]2(C(=O)O)CC[C@]3(C)[C@H](CC[C@@H]4[C@@]5(C)CC[C@H](O)C(C)(C)[C@@H]5CC[C@]43C)[C@@H]12`, the pEC50 is less than 3.70 and the pIC50 was 4.68.

Regarding `Cc1c(CCC(C)C)oc2cc3oc(CCC(C)C)c(C)c3cc12`, the pEC50 is less than 4.15 and the pIC50 was less than 4.15. On to `CC[C@@H](C(=O)[C@@H](C)[C@@H](O)[C@H](C)CCc1ccc(C)c(O)c1C(=O)O)[C@H]1O[C@](CC)([C@H]2CC[C@](O)(CC)[C@H](C)O2)C[C@@H]1C`, for which the pEC50 is 5.82 and the pIC50 is 5.74. Turning to `COc1ccc(NC(=O)/C(=C/n2c(=S)[nH]c3cc(C)ccc32)C(C)=O)cc1`, the pEC50 was less than 3.70 and the pIC50 was less than 3.70. On to `Cn1c(=O)c(Cl)c(N=[N+]=[N-])c2ccccc21`, for which the pEC50 is less than 4.12 and the pIC50 is 4.26. The like results for `C=CCC(C(=O)OC)C1(C(=O)OC)c2[nH]c3ccccc3c2CCN1Cc1ccccc1` (stereo not given) were, in that order, less than 4.40 and less than 4.40. The corresponding values for `CC(=O)N1C(OCc2ccccc2)CCN1c1ccccc1` (stereo not given) are less than 3.70 and less than 3.70.

For `Cc1nc2cc([N+](=O)[O-])ccc2c(NCCCN(C)C)c1C`, the pEC50 was less than 3.70 and the pIC50 is 5.45. The corresponding values for `CC1(C)C2CCC13CS(=O)(=O)N1O[C@]13C(=O)O2` (stereo not given in full) are less than 3.71 and less than 3.71. As to `CN1C(=O)/C(=C2\SC(=O)N(CN3CCCCC3)C2=O)c2cc(Br)ccc21`, the pEC50 is less than 3.70 and the negative-log IC50 (pIC50) is 4.04.

For `N#Cc1c(O)c(C=Nc2ccc(Cl)cc2)c(=O)n2c1[nH]c1ccccc12`, the pEC50 is less than 4.00 and the negative-log IC50 (pIC50) is less than 4.00. Regarding `Cc1ccc(Nc2nc3nc[nH]c3c(=O)[nH]2)cc1CO`, the pEC50 is less than 3.70 and the negative logarithm of the IC50 (pIC50) is less than 3.70. With `Oc1ccc(C23CC4CC(CC(C4)C2)C3)cc1`, the result was inactive. `Cc1ccccc1NC(=O)C(=O)CC(=O)c1ccc([N+](=O)[O-])cc1`: the pEC50 is less than 5.08 and the pIC50 was less than 5.08. Turning to `NCC(SSC(CN)C(=O)O)C(=O)O` (stereo not given), the pEC50 is less than 3.70 and the pIC50 is less than 3.70. Regarding `CCOC(=O)CSc1nc(-c2ccc(Cl)cc2)c(C#N)c(=O)[nH]1`, the pEC50 was less than 3.70 and the pIC50 was 4.03.

Take `O=[N+]([O-])c1cccc2nc3ccccc3c(NCCc3ccccn3)c12`: the pEC50 is less than 5.70 and the pIC50 is 7.20. For `CC(=O)OC1(Sc2ccccc2)CC2[C@H]3COC(C)(C)O[C@H]3CC[C@@]2(C)CC1=O` (stereo not given in full), the result was inactive. As for `NC(=O)c1coc(C2OC(CO)C(O)C2O)n1` (stereo not given), the pEC50 is less than 2.99 and the pIC50 is less than 2.99. As to `CN1C(=O)N(C)C(N2CCCC2)c2c1nc1ccccn1c2=O` (stereo not given), the pEC50 was less than 3.66 and the pIC50 is 4.18.

As to `COc1cc2c(c(OC)c1OC)CCNC2C1=C(O)COC1=O` (stereo not given), the outcome was inactive. In the case of `c1ccc(N=C(Nc2ccccc2)N2CCCC2)cc1`, the pEC50 was less than 3.70 and the pIC50 was 3.76. The like results for `[O]=[Sb][c]1ccc(C(=O)O)cc1` were, in that order, less than 3.70 and 4.58. The corresponding values for `O=C(O)c1cc(CCc2cc(O)ccc2O)ccc1O` are less than 3.74 and 4.54. The like results for `Cc1cc(Cl)ccc1NC(=O)CC/C(CC(=O)C(C)C)=N\NC(=O)C[n+]1ccccc1` were, in that order, less than 4.79 and less than 4.79. `CC(C)c1ccc(C=Nc2ccc(SSc3ccc(N=Cc4ccc(C(C)C)cc4)cc3)cc2)cc1`: the pEC50 was less than 3.70 and the pIC50 was 4.53. On to `COc1ccc(/C(=N\NC(=O)C(N)=O)C(c2ccc(OC)cc2)C2(O)C(=O)Nc3c(Cl)cccc32)cc1` (stereo not given), for which the pEC50 is less than 4.74 and the pIC50 is less than 4.74. For `Cc1cc(/C=C2/OC(=O)c3ccccc32)cc(C)c1O`, the pEC50 is less than 4.00 and the pIC50 was less than 4.00. Take `COC12CCCN1c1ccn(Cc3ccccc3)c(=O)c1C2=O` (stereo not given): the outcome was inactive.

As to `CC(=O)OC1CC2(c3ccccc3)C(=O)c3ccccc3N2O1` (stereo not given), the pEC50 is less than 3.94 and the pIC50 is less than 3.94. Take `OC(c1ccccc1)c1c(-c2ccccc2)[nH]c(-c2ccccc2)c1C(O)c1ccccc1` (stereo not given): the result was inactive. For the compound `O=NC1C(Cl)C2CC1C1COCC21` (stereo not given), the pEC50 was less than 2.91 and the pIC50 was less than 2.91.

As for `CCCCCCCCCCCCCCCCCCN1CN(CO)C(=O)N(CO)C1`, the pEC50 is less than 3.70 and the pIC50 is 3.78. The like results for `C=C(CN(C)C)C(=O)c1cc(C)ccc1C` were, in that order, less than 3.70 and 4.95. The like results for `O=C1/C(=C/c2ccccc2)N=C(c2ccccc2)N1n1c(-c2ccccc2)nc2ccccc2c1=O` were, in that order, less than 3.70 and 4.12.

In the case of `CCN(CC)CC1CCCCN1CC(=O)N1c2ccc(Br)cc2C(=O)Nc2cccnc21` (stereo not given), the pEC50 was less than 3.70 and the pIC50 is less than 3.70.

For the compound `NNc1n[nH]c(=S)n1N`, the pEC50 is less than 3.70 and the pIC50 is less than 3.70.

Regarding `C=CC(=O)C#Cc1cnc(OC)nc1OC`, the pEC50 is less than 3.70 and the pIC50 is 5.96.

As for `NC(CCc1nc(-c2ccccc2)cs1)C(=O)O` (stereo not given), the outcome was inactive.
